Test results taken from the NIST ThermoML archive (doi:10.1016/j.tca.2004.11.015).

Experiment: xn = mol fraction of the nth substance listed
Conditions: 101.33 kPa, Liquid, Vibrating tube method

NCCO [2-aminoethan-1-ol] + CO
mass density [kg/m3]
Conditions	298.15 K	303.15 K	308.15 K	313.15 K	318.15 K
x1 = 0.012	–	787.1	782.38	777.63	772.84
x1 = 0.031	–	795.25	790.55	785.84	781.09
x1 = 0.05	–	803	798.35	793.66	788.95
x1 = 0.1	–	822.49	817.92	813.31	808.68
x1 = 0.15	–	840.37	835.87	831.33	826.77
x1 = 0.2002	–	857.06	852.62	848.14	843.64
x1 = 0.2501	–	872.24	867.83	863.41	858.96
x1 = 0.2974	–	885.69	881.34	876.95	–
x1 = 0.3502	–	899.65	895.33	891	–
x1 = 0.4001	–	911.58	907.3	903	–
x1 = 0.4427	–	921.28	917.02	912.75	–
x1 = 0.4502	–	923.08	918.84	914.57	–
x1 = 0.5002	–	933.46	929.24	925	–
x1 = 0.5501	–	943.18	938.99	934.78	–
x1 = 0.6001	956.54	952.39	948.22	944.04	–
x1 = 0.6501	965.1	960.97	956.84	952.68	–
x1 = 0.7005	973.37	969.28	965.16	961.03	–
x1 = 0.7479	980.32	976.24	972.15	968.04	–
x1 = 0.8002	988.11	984.06	980	975.92	–
x1 = 0.8502	994.53	990.5	986.45	982.4	–
x1 = 0.8967	1000.67	996.66	992.63	988.6	–
x1 = 0.9501	1006.88	1002.89	998.89	994.88	–
